Drawing on patent publication US20250122219A1 (priority 2023, published 2025), this text covers EC50 and CC50 for 16 compounds.

For one series, the system named is HIV-1 (IIIB). The experiment in a line: Antiviral assay in MT-4 cells. It counts as cell-based. The following applies: Human immunodeficiency virus 1, MT4, 120 h; HIV-1 IIIB in MT-4 cells, 5 days incubation, Cell Titer Glo; read-out: MT4 EC50. Put shortly: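 HIV-1 IIIB-infected MT-4 cells (fresh 1:250 virus stock dilution; mock-infected controls) incubated 5 days at 37 °C with serially diluted compounds in RPMI/10% FBS; 5 μM AZT as positive control. Cell viability read by CellTiter-Glo luminescence as measure of protection from viral replication.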
For orientation: Cellular ATP, detected with luciferase, serves as a proxy for viable cell number.

The nature of series [1]: Cytotoxicity assay in MT-4 cells. It counts as cell-based. Particulars: human; uninfected MT-4 cells, 5 days incubation, Cell Titer Glo; read-out: MT4 CC50. Put shortly:
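Uninfected MT-4 cells exposed to serially diluted compounds in RPMI with 10% FBS for 5 days at 37 °C. Viability by Cell Titer Glo chemiluminescence. Puromycin […] as baseline cytotoxicity control.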

Where only a bound is given, the exact number is not on record here.

By EC50 is commonly meant the concentration at which the effect is half-maximal. Broadly, the CC50 is the concentration that lowers cell viability or growth by half.

In the case of `CCCCCCCCCCOC(=O)OCOc1c2n(cc(C(=O)NCc3ccc(F)cc3F)c1=O)[C@@H]1CN(C2=O)[C@@H](C)CC[C@]12CC(OC)=NO2` [Example 189, decyl ((((3′S,5S,7′R)-10′-((2,4-difluorobenzyl)carbamoyl)-3-methoxy-3′-methyl-1′,11′-dioxo-1′,4′,5′,11′-tetrahydro-3′H,4H,7′H-spiro[isoxazole-5,6′-[2,7]methanopyrido[1,2-a][1,4]diazonin]-12′-yl)oxy)methyl) carbonate], the EC50 in the series on HIV-1 (IIIB) was 3.54 nM. Also, the CC50 at 5 days in series [1] is at least 50000 nM.
In the case of `CCCCCCCCCCCCOC(=O)OCOc1c2n(cc(C(=O)NCc3ccc(F)cc3F)c1=O)[C@@H]1CN(C2=O)[C@@H](C)CC[C@]12CC(C)=NO2` [Example 190, (((3′S,5S,7′R)-10′-((2,4-difluorobenzyl)carbamoyl)-3,3′-dimethyl-1′,11′-dioxo-1′,4′,5′,11′-tetrahydro-3′H,4H,7′H-spiro[isoxazole-5,6′-[2,7]methanopyrido[1,2-a][1,4]diazonin]-12′-yl)oxy)methyl dodecyl carbonate], the 50% effective concentration (EC50) with HIV-1 (IIIB) was 0.495 nM. For the same compound, in series [1], the 50% cytotoxic concentration (CC50) at 5 days was at least 50000 nM.
In the case of `CCCCCCCCCCCCOC(=O)OCOc1c2n(cc(C(=O)NCc3ccc(F)cc3F)c1=O)[C@@H]1CN(C2=O)[C@@H](C)CC[C@]12CC(OC)=NO2` [Example 191, (((3′S,5S,7′R)-10′-((2,4-difluorobenzyl)carbamoyl)-3-methoxy-3′-methyl-1′,11′-dioxo-1′,4′,5′,11′-tetrahydro-3′H,4H,7′H-spiro[isoxazole-5,6′-[2,7]methanopyrido[1,2-a][1,4]diazonin]-12′-yl)oxy)methyl dodecyl carbonate], in the series with HIV-1 (IIIB), the 50% effective concentration (EC50) is 1.67 nM. In series [1], the CC50 at 5 days was at least 50000 nM.
As for `CCCCCCCCCCCCCCCCOC(=O)OCOc1c2n(cc(C(=O)NCc3ccc(F)cc3F)c1=O)[C@@H]1CN(C2=O)[C@@H](C)CC[C@]12CC(C)=NO2` [Example 194, (((3′S,5S,7′R)-10′-((2,4-difluorobenzyl)carbamoyl)-3,3′-dimethyl-1′,11′-dioxo-1′,4′,5′,11′-tetrahydro-3′H,4H,7′H-spiro[isoxazole-5,6′-[2,7]methanopyrido[1,2-a][1,4]diazonin]-12′-yl)oxy)methyl hexadecyl carbonate], the concentration for a half-maximal effect (EC50) with HIV-1 (IIIB) was 16.7 nM. Moreover, the 50% cytotoxic concentration (CC50) at 5 days in series [1] is at least 50000 nM.
For `CCCCCCCCCCCCCCCCOC(=O)OCOc1c2n(cc(C(=O)NCc3ccc(F)cc3F)c1=O)[C@@H]1CN(C2=O)[C@@H](C)CC[C@]12CC(OC)=NO2` [Example 195, (((3′S,5S,7′R)-10′-((2,4-difluorobenzyl)carbamoyl)-3-methoxy-3′-methyl-1′,11′-dioxo-1′,4′˜5′,11′-tetrahydro-3′H,4H,7′H-spiro[isoxazole-5,6′-[2,7]methanopyrido[1,2-a][1,4]diazonin]-12′-yl)oxy)methyl hexadecyl carbonate] the same measures were 33.5 nM and at least 50000 nM.
For the compound `CCCCCCCCCCCCCCCCCCOC(=O)OCOc1c2n(cc(C(=O)NCc3ccc(F)cc3F)c1=O)[C@@H]1CN(C2=O)[C@@H](C)CC[C@]12CC(C)=NO2` [Example 196, (((3′S,5S,7′R)-10′-((2,4-difluorobenzyl)carbamoyl)-3,3′-dimethyl-1′,11′-dioxo-1′,4′,5′,11′-tetrahydro-3′H,4H,7′H-spiro[isoxazole-5,6′-[2,7]methanopyrido[1,2-a][1,4]diazonin]-12′-yl)oxy)methyl octadecyl carbonate], the EC50 with HIV-1 (IIIB) stood at 18.4 nM. Besides, the 50% cytotoxic concentration (CC50) at 5 days in series [1] is at least 50000 nM.
For `CCCCCCCCCCCCCCCCCCOC(=O)OCOc1c2n(cc(C(=O)NCc3ccc(F)cc3F)c1=O)[C@@H]1CN(C2=O)[C@@H](C)CC[C@]12CC(OC)=NO2` [Example 197, (((3′S,5S,7′R)-10′-((2,4-difluorobenzyl)carbamoyl)-3-methoxy-3′-methyl-1′,11′-dioxo-1′,4′,5′,11′-tetrahydro-3′H,4H,7′H-spiro[isoxazole-5,6′-[2,7]methanopyrido[1,2-a][1,4]diazonin]-12′-yl)oxy)methyl octadecyl carbonate], in that order: 41.2 nM and at least 50000 nM.
For `COC1=NO[C@@]2(CC[C@H](C)N3C[C@H]2n2cc(C(=O)NCc4ccc(F)cc4F)c(=O)c(OCOC(=O)OC(C)C)c2C3=O)C1` [Example 198, (((3′S,5S,7′R)-10′-((2,4-difluorobenzyl)carbamoyl)-3-methoxy-3′-methyl-1′,11′-dioxo-1′,4′,5′,11′-tetrahydro-3′H,4H,7′H-spiro[isoxazole-5,6′-[2,7]methanopyrido[1,2-a][1,4]diazonin]-12′-yl)oxy)methyl isopropyl carbonate], in that order: 6.29 nM and at least 50000 nM.
For `CC1=NO[C@@]2(CC[C@H](C)N3C[C@H]2n2cc(C(=O)NCc4ccc(F)cc4F)c(=O)c(OCOC(=O)OCC(C)C)c2C3=O)C1` [Example 199, (((3′S,5S,7′R)-10′-((2,4-difluorobenzyl)carbamoyl)-3,3′-dimethyl-1′,11′-dioxo-1′,4′,5′,11′-tetrahydro-3′H,4H,7′H-spiro[isoxazole-5,6′-[2,7]methanopyrido[1,2-a][1,4]diazonin]-12′-yl)oxy)methyl isobutyl carbonate], in that order: 3.87 nM and 15500 nM.
For the compound `COC1=NO[C@@]2(CC[C@H](C)N3C[C@H]2n2cc(C(=O)NCc4ccc(F)cc4F)c(=O)c(OCOC(=O)OCC(C)C)c2C3=O)C1` [Example 200, (((3′S,5S,7′R)-10′-((2,4-difluorobenzyl)carbamoyl)-3-methoxy-3′-methyl-1′,11′-dioxo-1′,4′,5′,11′-tetrahydro-3′H,4H,7′H-spiro[isoxazole-5,6′-[2,7]methanopyrido[1,2-a][1,4]diazonin]-12′-yl)oxy)methyl isobutyl carbonate], the concentration for a half-maximal effect (EC50) with HIV-1 (IIIB) was found to be 1.9 nM. Besides, the half-maximal cytotoxic concentration (CC50) at 5 days in series [1] was found to be 15200 nM.
In the case of `CC1=NO[C@@]2(CC[C@H](C)N3C[C@H]2n2cc(C(=O)NCc4ccc(F)cc4F)c(=O)c(OCOC(=O)OCCC(C)C)c2C3=O)C1` [Example 201, (((3′S,5S,7′R)-10′-((2,4-difluorobenzyl)carbamoyl)-3,3′-dimethyl-1′,11′-dioxo-1′,4′,5′,11′-tetrahydro-3′H,4H,7′H-spiro[isoxazole-5,6′-[2,7]methanopyrido[1,2-a][1,4]diazonin]-12′-yl)oxy)methyl isopentyl carbonate], the EC50 in the series with HIV-1 (IIIB) was 4.47 nM. Further, in series [1], the cytotoxic concentration (CC50) at 5 days was 16900 nM.
`COC1=NO[C@@]2(CC[C@H](C)N3C[C@H]2n2cc(C(=O)NCc4ccc(F)cc4F)c(=O)c(OCOC(=O)OCCC(C)C)c2C3=O)C1` [Example 202, (((3′S,5S,7′R)-10′-((2,4-difluorobenzyl)carbamoyl)-3-methoxy-3′-methyl-1′,11′-dioxo-1′,4′,5′,11′-tetrahydro-3′H,4H,7′H-spiro[isoxazole-5,6′-[2,7]methanopyrido[1,2-a][1,4]diazonin]-12′-yl)oxy)methyl isopentyl carbonate]: the half-maximal effective concentration (EC50) with HIV-1 (IIIB) is 2.71 nM. In series [1], the half-maximal cytotoxic concentration (CC50) at 5 days worked out at 21600 nM.
For `CC1=NO[C@@]2(CC[C@H](C)N3C[C@H]2n2cc(C(=O)NCc4ccc(F)cc4F)c(=O)c(OCOC(=O)OCCCC(C)C)c2C3=O)C1` [Example 203, (((3′S,5S,7′R)-10′-((2,4-difluorobenzyl)carbamoyl)-3,3′-dimethyl-1′,11′-dioxo-1′,4′,5′,11′-tetrahydro-3′H,4H,7′H-spiro[isoxazole-5,6′-[2,7]methanopyrido[1,2-a][1,4]diazonin]-12′-yl)oxy)methyl (4-methylpentyl) carbonate] the same measures were 3.56 nM and 26400 nM.
For `COC1=NO[C@@]2(CC[C@H](C)N3C[C@H]2n2cc(C(=O)NCc4ccc(F)cc4F)c(=O)c(OCOC(=O)OCCCC(C)C)c2C3=O)C1` [Example 204, (((3′S,5S,7′R)-10′-((2,4-difluorobenzyl)carbamoyl)-3-methoxy-3′-methyl-1′,11′-dioxo-1′,4′,5′,11′-tetrahydro-3′H,4H,7′H-spiro[isoxazole-5,6′-[2,7]methanopyrido[1,2-a][1,4]diazonin]-12′-yl)oxy)methyl (4-methylpentyl) carbonate], in that order: 3.82 nM and 29800 nM.
For `CC1=NO[C@@]2(CC[C@H](C)N3C[C@H]2n2cc(C(=O)NCc4ccc(F)cc4F)c(=O)c(OCOC(=O)OCCCCC(C)C)c2C3=O)C1` [Example 205, (((3′S,5S,7′R)-10′-((2,4-difluorobenzyl)carbamoyl)-3,3′-dimethyl-1′,11′-dioxo-1′,4′,5′,11′-tetrahydro-3′H,4H,7′H-spiro[isoxazole-5,6′-[2,7]methanopyrido[1,2-a][1,4]diazonin]-12′-yl)oxy)methyl (5-methylhexyl) carbonate], in that order: 2.47 nM and 23100 nM.
On to `COC1=NO[C@@]2(CC[C@H](C)N3C[C@H]2n2cc(C(=O)NCc4ccc(F)cc4F)c(=O)c(OCOC(=O)OCCCCC(C)C)c2C3=O)C1` [Example 206, (((3′S,5S,7′R)-10′-((2,4-difluorobenzyl)carbamoyl)-3-methoxy-3′-methyl-1′,11′-dioxo-1′,4′,5′,11′-tetrahydro-3′H,4H,7′H-spiro[isoxazole-5,6′-[2,7]methanopyrido[1,2-a][1,4]diazonin]-12′-yl)oxy)methyl (5-methylhexyl) carbonate], for which the EC50 in the series with HIV-1 (IIIB) is 2.44 nM. Also, the CC50 at 5 days in series [1] was 37200 nM.
